Assay [1] addresses T1, Interleukin-1 receptor-associated kinase 4 (Homo sapiens, UniProt Q9NWZ3).
T1 sequence (Q9NWZ3 whole entry): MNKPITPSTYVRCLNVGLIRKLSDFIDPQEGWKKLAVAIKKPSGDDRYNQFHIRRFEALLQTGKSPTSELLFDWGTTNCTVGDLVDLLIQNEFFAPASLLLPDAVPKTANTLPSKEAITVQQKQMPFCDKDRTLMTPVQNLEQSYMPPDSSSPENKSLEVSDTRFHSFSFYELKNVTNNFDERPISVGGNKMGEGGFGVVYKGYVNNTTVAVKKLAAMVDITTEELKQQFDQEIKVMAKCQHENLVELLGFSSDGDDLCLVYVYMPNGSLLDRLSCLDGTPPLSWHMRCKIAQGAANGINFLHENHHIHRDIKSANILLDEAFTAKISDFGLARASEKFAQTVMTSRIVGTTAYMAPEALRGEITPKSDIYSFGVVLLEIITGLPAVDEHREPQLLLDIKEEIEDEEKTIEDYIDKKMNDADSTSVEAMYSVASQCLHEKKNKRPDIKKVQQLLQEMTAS
Nature of the assay: IRAK4 Enzymatic Assay: IRAK4 is a human purified recombinant enzyme ([…] IRAK4 hydrolyses ATP, autophosphorylates and phosphorylates a Serine/Threonine generic peptidic substrate (STK: 61ST1BLC from CisBio International based in Bagnols/Cèze FR).Measurement of IRAK-4 inhibition is performed in streptavidin coated 384 well FlashPlate (PerkinElmer #SMP410A). His-TEV-IRAK4 (20 ng/well), ATP (2 μM, [33P]ATP 0.25 μCi/well), STK1-biotin peptide (300 nM) and compounds in DMSO (range of concentrations from 20 μM to 1 nM) or controls (2% DMSO) are incubated for 3 hours at 30° C. in assay buffer: Hepes pH 7.0 50 mM, Fatty acid-free BSA 0.1%, Dithiothreitol DTT 2 mM, MgCl2 10 mM, EGTA 0.5 mM, Tween-20 0.01%, MnCl2 5 mM.Kinase reaction is stopped by addition of EDTA. Supernatant is discarded, plates are washed three times with 150 mM NaCl and radioactivity is then measured in a Microbeta Trilux reader.

Assay [2] concerns the target Interleukin-1 receptor-associated kinase 1 (Homo sapiens, UniProt P51617). Nature of the assay: IRAK1 Enzymatic Assay: IRAK1 is a human purified recombinant enzyme (His-TEV-IRAK1 (194-712)) In this assay, IRAK-1 hydrolyses ATP and autophosphorylates.Measurement of IRAK-1 inhibition is performed in streptavidin coated 384 well FlashPlate (PerkinElmer #SMP410A).His-TEV-IRAK-1 (15 ng/well), ATP (1 μM, [33P]ATP 0.25 μCi/well) and compounds in DMSO (range of concentrations from 20 μM to 1 nM) or controls (2% DMSO) are incubated for 3 hours at 30° C. in assay buffer: Hepes pH 7.0 50 mM, Fatty acid-free BSA 0.1%, Dithiothreitol DTT 2 mM, MgCl2 10 mM, EGTA 0.5 mM, Triton-X-100 0.01%. Kinase reaction is stopped by addition of EDTA. Supernatant is discarded, plates are washed three times with 150 mM NaCl and radioactivity is then measured in a Microbeta Trilux reader.

Results on one compound are retold here after ChEMBL document CHEMBL5725580, “Macrocyclic pyridazinone derivatives” (2018).

Chain of Interleukin-1 receptor-associated kinase 1 (P51617 whole entry): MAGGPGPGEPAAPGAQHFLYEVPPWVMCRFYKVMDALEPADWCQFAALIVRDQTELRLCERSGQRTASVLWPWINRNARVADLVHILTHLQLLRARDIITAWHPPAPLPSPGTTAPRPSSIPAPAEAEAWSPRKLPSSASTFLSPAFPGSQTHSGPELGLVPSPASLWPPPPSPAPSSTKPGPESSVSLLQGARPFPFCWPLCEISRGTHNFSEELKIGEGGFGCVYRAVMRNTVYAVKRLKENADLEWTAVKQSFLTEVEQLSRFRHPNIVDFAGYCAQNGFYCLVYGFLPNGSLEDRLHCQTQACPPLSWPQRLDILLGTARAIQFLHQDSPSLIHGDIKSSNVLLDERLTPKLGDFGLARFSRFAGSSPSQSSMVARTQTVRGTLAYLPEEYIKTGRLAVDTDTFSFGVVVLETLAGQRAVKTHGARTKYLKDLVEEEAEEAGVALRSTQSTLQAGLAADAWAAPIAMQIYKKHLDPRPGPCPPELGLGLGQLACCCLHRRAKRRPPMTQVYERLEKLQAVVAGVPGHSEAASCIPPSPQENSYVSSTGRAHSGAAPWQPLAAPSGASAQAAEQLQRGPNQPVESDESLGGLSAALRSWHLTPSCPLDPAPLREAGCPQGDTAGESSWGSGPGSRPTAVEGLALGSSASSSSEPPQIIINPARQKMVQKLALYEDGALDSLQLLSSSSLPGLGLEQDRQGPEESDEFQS

What is called IC50 is the concentration at which inhibition is half-maximal. `O=C1Nc2nc3ccccc3n2CCn2cc(cn2)-c2ccc(=O)n(n2)Cc2cccc1c2`: the concentration for half-maximal inhibition (IC50) in assay [1] and in assay [2] was below 100 nM each time.
